Like-named read-outs stand apart in the source and are kept apart here. Marks after values point to notes of the source that are not given here.
What was measured:
[1] = log P by HPLC (EEC Directive 79/831 Annex V.A8); type: physicochemical
Phytophthora infestans = type: in vivo; settings: protective, young tomato plants, active ingredient concentration 500 ppm, evaluation 7 days after inoculation
[2] = [a] HPLC, acidic range, pH 2.3, 0.1% aqueous phosphoric acid and acetonitrile
[3] = [c] LC-MS, neutral range, pH 7.8, 0.001 molar aqueous ammonium hydrogencarbonate and acetonitrile
[4] = [b] LC-MS, acidic range, pH 2.7, 0.1% aqueous formic acid and acetonitrile
[5] = HPLC, pH 2.7, given in the preparation examples, read-out: logP (pH2.7)
[6] = HPLC (LC-MS), [b] LC-MS, acidic range, pH 2.7, 0.1% aqueous formic acid and acetonitrile, read-out: log P

## O=C(Sc1cccc2ccccc12)c1cccc(N2CCN(C(=O)Cn3nc(C(F)F)cc3C(F)F)CC2)n1 [Example 120]
[1]; [2]
  log P: 4.25
[1]; [3]
  log P: 4.28
Phytophthora infestans
  efficacy: 93%

## Cc1cc(C(F)(F)F)nn1CC(=O)N1CCN(c2cccc(C(=O)OCc3ccccc3F)n2)CC1 [Example 73]
[1]; [4]
  log P: 3.58
[1]; [3]
  log P: 3.6
Phytophthora infestans
  efficacy: 71%

## Cc1cc(C(F)(F)F)nn1CC(=O)N1CCN(c2cccc(C(=O)OCc3c(F)cc(F)cc3F)n2)CC1 [Example 118]
[1]; [4]
  log P: 3.68
[1]; [3]
  log P: 3.71
Phytophthora infestans
  efficacy: 93%

## O=C(NCc1ccccc1Br)c1cccc(C2CCN(C(=O)Cn3nc(C(F)F)cc3C(F)F)CC2)n1 [Example 4]
[1]; [4]
  log P: 3.44
[1]; [3]
  log P: 3.47

## CCOC(=O)c1cccc(C2CCN(C(=O)OC(C)(C)C)CC2)n1 [Ethyl 6-[1-(tert-butoxycarbonyl)piperidin-4-yl]pyridine-2-carboxylate]
[1]; [5]
  chromatographic logP: 3.29

## CCOC(=O)c1cccc(C2CCN(C(=O)Cn3nc(C(F)(F)F)cc3C)CC2)n1 [Example 132]
[1]; [4]
  log P: 2.73^[b]

## O=C(NCc1ccc(Cl)cc1Cl)c1cccc(C2CCN(C(=O)Cn3nc(C(F)F)cc3C(F)F)CC2)n1 [Example 86]
[1]; [4]
  log P: 3.86^[b]; 3.86^[c]
[1]; [3]
  log P: 3.86^[b]; 3.86^[c]

## Cc1cc(C(F)(F)F)nn1CC(=O)N1CCC(c2cccc(C(=O)N(C)C3CCCc4ccccc43)n2)CC1 (centres unmarked) [Example 12, N-Methyl-6-(1-{[5-methyl-3-(trifluoromethyl)-1H-pyrazol-1-yl]acetyl}piperidin-4-yl)-N-(1,2,3,4-tetrahydronaphthalen-1-yl)pyridine-2-carboxamide]
[1]; [6]
  chromatographic logP: 3.61
[1]; [5]
  chromatographic logP: 3.61

## O=C(NCc1ccccc1Cl)c1cccc(N2CCN(C(=O)Cn3nc(C(F)F)cc3C(F)F)CC2)n1 [Example 146]
[1]; [2]
  log P: 3.24
[1]; [3]
  log P: 3.26

## O=C(OC1C=CCCC1)c1cccc(C2CCN(C(=O)Cn3nc(C(F)F)cc3C(F)F)CC2)n1 (centres unmarked) [Example 98]
[1]; [4]
  log P: 3.87^[b]

## Cc1cc(C(F)(F)F)nn1CC(=O)N1CCC(c2cccc(C(=O)N(C)Cc3ccccn3)n2)CC1 [Example 14]
[1]; [3]
  log P: 2.23^[c]

## Cc1cc(C(F)(F)F)nn1CC(=O)N1CCC(c2cccc(C(=O)Oc3cccc4ccccc34)n2)CC1 [Example 51]
[1]; [4]
  log P: 3.97^[b]

## CCCCCC(C)NC(=O)c1cccc(C2CCN(C(=O)Cn3nc(C(F)F)cc3C(F)F)CC2)n1 (centres unmarked) [Example 83]
[1]; [4]
  log P: 3.99
[1]; [3]
  log P: 3.95

## Cc1cc(C(F)(F)F)nn1CC(=O)N1CCN(c2cccc(C(=O)NCc3cccs3)n2)CC1 [Example 67]
[1]; [4]
  log P: 2.92
[1]; [3]
  log P: 2.93

## O=C(NCc1ccc(F)cc1F)c1cccc(C2CCN(C(=O)Cn3nc(C(F)F)cc3C(F)F)CC2)n1 [Example 87]
[1]; [4]
  log P: 3.22
[1]; [3]
  log P: 3.24

## Cc1cc(C(F)(F)F)nn1CC(=O)N1CCC(c2cccc(C(=O)SC3CCCCC3)n2)CC1 [Example 53]
[1]; [3]
  log P: 4.83^[c]

## CCOC(=O)c1cccc(N2CCN(C(=O)Cn3nc(C(F)F)cc3C(F)F)CC2)n1 [Ethyl 6-(4-{[3,5-bis(difluoromethyl)-1H-pyrazol-1-yl]acetyl}piperazin-1-yl)pyridine-2-carboxylate]
[1]; [5]
  chromatographic logP: 2.71

## O=C(NCc1ccccc1Cl)c1cccc(C2CCN(C(=O)Cn3nc(C(F)F)cc3C(F)F)CC2)n1 [Example 88]
[1]; [4]
  log P: 3.35
[1]; [3]
  log P: 3.39

## Cc1cc(C(F)(F)F)nn1CC(=O)N1CCN(c2cccc(C(=O)N(C)C3CCCc4ccccc43)n2)CC1 (centres unmarked) [Example 147]
[1]; [4]
  log P: 3.55
[1]; [3]
  log P: 3.59

## Cc1cc(C(F)(F)F)nn1CC(=O)N1CCN(c2cccc(C(=O)N(C)C3CCCCC3)n2)CC1 [Example 64]
[1]; [4]
  log P: 3.19
[1]; [3]
  log P: 3.21

## Cc1cc(C(F)(F)F)nn1CC(=O)N1CCC(c2cccc(C(=O)NC(C)c3ccccc3Cl)n2)CC1 (racemic) [Example 16]
[1]; [4]
  log P: 3.82
[1]; [3]
  log P: 3.75

## Cc1cc(C(F)(F)F)nn1CC(=O)N1CCC(c2cccc(C(=O)OCc3ccccc3C(F)(F)F)n2)CC1 [Example 45]
[1]; [4]
  log P: 3.97^[b]

## O=C(SCc1ccccc1Cl)c1cccc(N2CCN(C(=O)Cn3nc(C(F)F)cc3C(F)F)CC2)n1 [Example 127]
[1]; [2]
  log P: 4.42
[1]; [3]
  log P: 4.44

## Cc1cc(C(F)(F)F)nn1CC(=O)N1CCC(c2cccc(C(=O)N(C)C3CCCCC3)n2)CC1 [Example 11]
[1]; [4]
  log P: 3.15
[1]; [3]
  log P: 3.18

## Cc1cc(C(F)(F)F)nn1CC(=O)N1CCC(c2cccc(C(=O)NCc3ccccc3Br)n2)CC1 [Example 5]
[1]; [4]
  log P: 3.59^[b]; 3.59^[c]
[1]; [3]
  log P: 3.59^[b]; 3.59^[c]

## CN(C(=O)c1cccc(C2CCN(C(=O)Cn3nc(C(F)F)cc3C(F)F)CC2)n1)c1ccccc1Cl [Example 77]
[1]; [4]
  log P: 3.01^[b]; 3.01^[c]
[1]; [3]
  log P: 3.01^[b]; 3.01^[c]

## Cc1cc(C(F)(F)F)nn1CC(=O)N1CCC(c2cccc(C(=O)OC3CCCc4ccccc43)n2)CC1 (centres unmarked) [Example 35]
[1]; [4]
  log P: 4.15^[b]

## CN(C(=O)c1cccc(C2CCN(C(=O)OC(C)(C)C)CC2)n1)C1CCCc2ccccc21 (centres unmarked) [tert-butyl 4-{6-[methyl(1,2,3,4-tetrahydronaphthalen-1-yl)carbamoyl]pyridin-2-yl}piperidine-1-carboxylate]
[1]; [5]
  chromatographic logP: 5.09

## Cc1cc(C(F)(F)F)nn1CC(=O)N1CCN(c2cccc(C(=O)NCc3c(F)cccc3F)n2)CC1 [Example 66]
[1]; [4]
  log P: 3.11
[1]; [3]
  log P: 3.12

## O=C(SCc1c(F)cccc1F)c1cccc(C2CCN(C(=O)Cn3nc(C(F)F)cc3C(F)F)CC2)n1 [Example 113]
[1]; [2]
  log P: 4.12
[1]; [3]
  log P: 4.13

## CCOC(=O)c1cccc(C2CCN(C(=O)Cn3nc(C(F)(F)F)cc3C)CC2)n1 [Example 134]
[1]; [4]
  log P: 2.74^[b]

## O=C(OC1CCCCC1)c1cccc(C2CCN(C(=O)Cn3nc(C(F)F)cc3C(F)F)CC2)n1 [Example 99, Cyclohexyl 6-(1-{[3,5-bis(difluoromethyl)-1H-pyrazol-1-yl]acetyl}piperidin-4-yl)-pyridine-2-carboxylate]
[1]; [6]
  chromatographic logP: 3.83
[1]; [5]
  chromatographic logP: 3.83

## Cc1ccsc1CNC(=O)c1cccc(C2CCN(C(=O)Cn3nc(C(F)F)cc3C(F)F)CC2)n1 [Example 92]
[1]; [4]
  log P: 3.19
[1]; [3]
  log P: 3.18

## Cc1cc(C(F)(F)F)nn1CC(=O)N1CCC(c2cccc(C(=O)N3CCOc4ccccc43)n2)CC1 [Example 15]
[1]; [4]
  log P: 3.04^[b]; 3.04^[c]
[1]; [3]
  log P: 3.04^[b]; 3.04^[c]

## Cc1ccccc1CSC(=O)c1cccc(N2CCN(C(=O)Cn3nc(C(F)(F)F)cc3C)CC2)n1 [Example 145]
[1]; [4]
  log P: 4.52
[1]; [3]
  log P: 4.55

## CN(Cc1ccccn1)C(=O)c1cccc(C2CCN(C(=O)Cn3nc(C(F)F)cc3C(F)F)CC2)n1 [Example 80]
[1]; [4]
  log P: 1.81
[1]; [3]
  log P: 2.18

## C=CCCCCOC(=O)c1cccc(C2CCN(C(=O)Cn3nc(C(F)(F)F)cc3C)CC2)n1 [Example 39]
[1]; [4]
  log P: 3.86^[b]

## Cc1cc(C(F)(F)F)nn1CC(=O)N1CCC(c2cccc(C(=O)NCc3ccccc3Cl)n2)CC1 [Example 23]
[1]; [4]
  log P: 3.49
[1]; [3]
  log P: 3.52

## Cc1cc(C(F)(F)F)nn1CC(=O)N1CCN(c2cccc(C(=O)Oc3ccc4ccccc4c3)n2)CC1 [Example 76]
[1]; [4]
  log P: 4.01
[1]; [3]
  log P: 4.02

## Cc1cc(C(F)(F)F)nn1CC(=O)N1CCC(c2cccc(C(=O)N(C)Cc3ccccc3Br)n2)CC1 [Example 2]
[1]; [4]
  log P: 3.47
[1]; [3]
  log P: 3.49

## Cc1cc(C(F)(F)F)nn1CC(=O)N1CCC(c2cccc(C(=O)OCc3ccccc3F)n2)CC1 [Example 47]
[1]; [4]
  log P: 3.52^[b]

## O=C(Sc1ccccc1)c1cccc(N2CCN(C(=O)Cn3nc(C(F)F)cc3C(F)F)CC2)n1 [Example 122]
[1]; [2]
  log P: 3.79
[1]; [3]
  log P: 3.81

## Cc1cc(C(F)(F)F)nn1CC(=O)N1CCC(c2cccc(C(=O)Oc3ccc4ccccc4c3)n2)CC1 [Example 52]
[1]; [4]
  log P: 3.9^[b]

## Cc1cc(C(F)(F)F)nn1CC(=O)N1CCC(c2cccc(C(=O)OCCCC(F)(F)F)n2)CC1 [Example 6]
[1]; [4]
  log P: 3.37^[b]

## Cc1cc(C(F)(F)F)nn1CC(=O)N1CCC(c2cccc(C(=O)OCc3ccccc3OC(F)(F)F)n2)CC1 [Example 8]
[1]; [4]
  log P: 4.06^[b]

## O=C(SCc1c(F)cccc1F)c1cccc(N2CCN(C(=O)Cn3nc(C(F)F)cc3C(F)F)CC2)n1 [Example 125]
[1]; [2]
  log P: 4.11
[1]; [3]
  log P: 4.14

## Cc1cc(C(F)(F)F)nn1CC(=O)N1CCC(c2cccc(C(=O)NCc3c(F)cccc3F)n2)CC1 [Example 24]
[1]; [4]
  log P: 3.33
[1]; [3]
  log P: 3.26

## O=C(Cn1nc(C(F)F)cc1C(F)F)N1CCC(c2cccc(C(=O)N3CCOc4ccccc43)n2)CC1 [Example 81]
[1]; [4]
  log P: 2.98
[1]; [3]
  log P: 2.97
